Patent US10597388B2, “Pyridazinone herbicides” (FMC CORPORATION, priority 2014, dated 2020)

How the values were obtained:
Assay in all cases: Test E greenhouse herbicide test, pre- and postemergence
Assay type in all cases: in vivo
[1] = system: Italian ryegrass (Lolium multiflorum)
In short: (§1)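 Visual rating vs untreated controls, 0 = no effect, 100 = complete control, after 14–21 d greenhouse. Pre: seeded silt loam treated with surfactant-containing solvent formulation. Post: 1–4-leaf plants (2–18 cm) in peat/vermiculite medium.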

[2] = system: barnyardgrass (Echinochloa crus-galli)
In short: as §1

corn (Zea mays) = system: corn (Zea mays)
In short: as §1

[3] = system: crabgrass, Brazilian (Brazilian crabgrass, Digitaria horizontalis)
In short: as §1

[4] = system: crabgrass, large (large crabgrass, Digitaria sanguinalis); conditions: Preemergence
In short: as §1

[5] = system: foxtail, green (green foxtail, Setaria viridis); conditions: Preemergence
In short: as §1

[6] = system: goosegrass (Eleusine indica); conditions: Preemergence
In short: as §1

[7] = system: johnsongrass (Sorghum halepense); conditions: Preemergence
In short: as §1

kochia (Kochia scoparia) = system: kochia (Kochia scoparia)
In short: as §1

[8] = system: nightshade (eastern black nightshade, Solanum ptycanthum); conditions: Preemergence
In short: as §1

[9] = system: nutsedge, yellow (yellow nutsedge, Cyperus esculentus); conditions: Preemergence
In short: as §1

[10] = system: pigweed, palmer (palmer pigweed, Amaranthus palmeri)
In short: as §1

[11] = system: ragweed (common ragweed, Ambrosia elatior)
In short: as §1

[12] = system: sandbur (southem sandbur, Cenchrus echinatus)
In short: as §1

[13] = system: surinam grass (Brachiaria decumbens); conditions: Preemergence
In short: as §1

[14] = system: velvetleaf (Abutilon theophrasti); conditions: Preemergence
In short: as §1

[15] = system: waterhemp (common waterhemp, Amaranthus rudis)
In short: as §1

[16] = 62 g ai/ha, Postemergence, scale 0 to 100 (0 no effect, 100 complete control)
[17] = 125 g ai/ha, Postemergence, scale 0 to 100 (0 no effect, 100 complete control)
[18] = 125 g ai/ha, Preemergence, scale 0 to 100 (0 no effect, 100 complete control)
[19] = 250 g ai/ha, Postemergence, scale 0 to 100 (0 no effect, 100 complete control)
[20] = Postemergence, 31 g ai/ha, visual, scale 0 no effect to 100 complete control
[21] = Preemergence, 31 g ai/ha, scale 0 to 100, 0 no effect, 100 complete control
[22] = Preemergence, 250 g ai/ha, visual, scale 0 no effect to 100 complete control
[23] = 62 g ai/ha, Preemergence, scale 0 to 100 (0 no effect, 100 complete control)
[24] = 62 g ai/ha, scale 0 to 100 (0 no effect, 100 complete control)
[25] = 125 g ai/ha, scale 0 to 100 (0 no effect, 100 complete control)
[26] = 31 g ai/ha, scale 0 to 100, 0 no effect, 100 complete control
[27] = 250 g ai/ha, visual, scale 0 no effect to 100 complete control

## CC(=O)Oc1c(C)nn(C)c(=O)c1-c1c(C)cc(C)c2ccccc12 [Compound 153]
[1]; [16]
  Plant response rating, Ryegrass, Italian: 90
[1]; [17]
  Plant response rating, Ryegrass, Italian: 90
[1]; [18]
  Plant response rating, Ryegrass, Italian: 100
[1]; [19]
  Plant response rating, Ryegrass, Italian: 95
[1]; [20]
  Plant response rating, Ryegrass, Italian: 85
[1]; [21]
  Plant response rating, Ryegrass, Italian: 100
[1]; [22]
  Plant response rating, Ryegrass, Italian: 100
[2]; [16]
  Plant response rating, Barnyardgrass: 40
[2]; [23]
  Plant response rating, Barnyardgrass: 50
[2]; [17]
  Plant response rating, Barnyardgrass: 50
[2]; [18]
  Plant response rating, Barnyardgrass: 70
[2]; [19]
  Plant response rating, Barnyardgrass: 80
[2]; [20]
  Plant response rating, Barnyardgrass: 25
[2]; [21]
  Plant response rating, Barnyardgrass: 20
[2]; [22]
  Plant response rating, Barnyardgrass: 90
Corn (Zea mays); [16]
  Plant response rating, Corn: 0
Corn (Zea mays); [23]
  Plant response rating, Corn: 0
Corn (Zea mays); [17]
  Plant response rating, Corn: 0
Corn (Zea mays); [18]
  Plant response rating, Corn: 10
Corn (Zea mays); [19]
  Plant response rating, Corn: 0
Corn (Zea mays); [20]
  Plant response rating, Corn: 0
Corn (Zea mays); [21]
  Plant response rating, Corn: 0
Corn (Zea mays); [22]
  Plant response rating, Corn: 20
[3]; [16]
  Plant response rating, Crabgrass, Brazil: 30
[3]; [23]
  Plant response rating, Crabgrass, Brazil: 70
[3]; [17]
  Plant response rating, Crabgrass, Brazil: 40
[3]; [18]
  Plant response rating, Crabgrass, Brazil: 100
[3]; [19]
  Plant response rating, Crabgrass, Brazil: 50
[3]; [20]
  Plant response rating, Crabgrass, Brazil: 20
[3]; [21]
  Plant response rating, Crabgrass, Brazil: 90
[3]; [22]
  Plant response rating, Crabgrass, Brazil: 100
[4]; [24]
  Plant response rating, Crabgrass, Large: 70
[4]; [25]
  Plant response rating, Crabgrass, Large: 75
[4]; [26]
  Plant response rating, Crabgrass, Large: 70
[4]; [27]
  Plant response rating, Crabgrass, Large: 80
[5]; [24]
  Plant response rating, Foxtail, Green: 75
[5]; [25]
  Plant response rating, Foxtail, Green: 90
[5]; [26]
  Plant response rating, Foxtail, Green: 50
[5]; [27]
  Plant response rating, Foxtail, Green: 95
[6]; [24]
  Plant response rating, Goosegrass: 40
[6]; [25]
  Plant response rating, Goosegrass: 60
[6]; [26]
  Plant response rating, Goosegrass: 40
[6]; [27]
  Plant response rating, Goosegrass: 75
[7]; [26]
  Plant response rating, Johnsongrass: 0
[7]; [27]
  Plant response rating, Johnsongrass: 60
Kochia (Kochia scoparia); [16]
  Plant response rating, Kochia: 50
Kochia (Kochia scoparia); [17]
  Plant response rating, Kochia: 55
Kochia (Kochia scoparia); [18]
  Plant response rating, Kochia: 50
Kochia (Kochia scoparia); [19]
  Plant response rating, Kochia: 70
Kochia (Kochia scoparia); [20]
  Plant response rating, Kochia: 50
Kochia (Kochia scoparia); [21]
  Plant response rating, Kochia: 40
Kochia (Kochia scoparia); [22]
  Plant response rating, Kochia: 90
[8]; [25]
  Plant response rating, Nightshade: 95
[8]; [26]
  Plant response rating, Nightshade: 70
[8]; [27]
  Plant response rating, Nightshade: 100
[9]; [25]
  Plant response rating, Nutsedge, Yellow: 80
[9]; [26]
  Plant response rating, Nutsedge, Yellow: 50
[9]; [27]
  Plant response rating, Nutsedge, Yellow: 95
[10]; [16]
  Plant response rating, Pigweed, Palmer: 20
[10]; [17]
  Plant response rating, Pigweed, Palmer: 30
[10]; [18]
  Plant response rating, Pigweed, Palmer: 60
[10]; [19]
  Plant response rating, Pigweed, Palmer: 40
[10]; [20]
  Plant response rating, Pigweed, Palmer: 20
[10]; [21]
  Plant response rating, Pigweed, Palmer: 50
[10]; [22]
  Plant response rating, Pigweed, Palmer: 95
[11]; [16]
  Plant response rating, Ragweed: 70
[11]; [17]
  Plant response rating, Ragweed: 80
[11]; [18]
  Plant response rating, Ragweed: 95
[11]; [19]
  Plant response rating, Ragweed: 90
[11]; [20]
  Plant response rating, Ragweed: 75
[11]; [21]
  Plant response rating, Ragweed: 100
[11]; [22]
  Plant response rating, Ragweed: 100
[12]; [17]
  Plant response rating, Sandbur: 60
[12]; [18]
  Plant response rating, Sandbur: 85
[12]; [19]
  Plant response rating, Sandbur: 70
[12]; [20]
  Plant response rating, Sandbur: 50
[12]; [21]
  Plant response rating, Sandbur: 80
[12]; [22]
  Plant response rating, Sandbur: 90
[13]; [25]
  Plant response rating, Surinam Grass: 90
[13]; [26]
  Plant response rating, Surinam Grass: 50
[13]; [27]
  Plant response rating, Surinam Grass: 100
[14]; [25]
  Plant response rating, Velvetleaf: 90
[14]; [26]
  Plant response rating, Velvetleaf: 85
[14]; [27]
  Plant response rating, Velvetleaf: 100
[15]; [17]
  Plant response rating, Waterhemp: 50
[15]; [18]
  Plant response rating, Waterhemp: 85
[15]; [19]
  Plant response rating, Waterhemp: 75
[15]; [20]
  Plant response rating, Waterhemp: 50
[15]; [21]
  Plant response rating, Waterhemp: 60
[15]; [22]
  Plant response rating, Waterhemp: 100
